Measurements reported in patent US4207339A, “Anti-ulcer pharmaceutical composition containing inositol hexasulfate or an alkaline metal salt thereof as active ingredient” (Mitsui Toatsu Chemicals, Incorporated, priority 1978, dated 1980).
Where a name gives a salt, the structure may show the parent alone. Read-outs that look alike come from different tables or passages of the source.

Experiments:
Shay's Ulcer = test: Anti-ulcer effect: Shay's ulcer (pyloric ligation); format: in vivo, Male rats of the Wistar strain; settings: p.o., 12 hours, vs control U.I.
Description: (§1) The anti-ulcer effect of some compounds of this invention was evaluated with regard to various types of experimental gastric and duodenal ulcers. The method of evaluation for each type of ulcer is outlined below.
Male rats of the Wistar strain, 7 or 8 weeks of age, were used in groups of ten. After 48 hours of fasting, the pyloric part of the stomach was ligated under ether anesthesia. Immediately after the operation, a certain amount of a compound to be tested was orally administered to each animal of a group. After 12 hours, the degree of ulceration occurring in the anterior part of the stomach was rated and regarded as an ulcer index (U.I.). Control rats were treated in the same manner as described above, except that they received no compounds to be tested. The results given in Table 1 are expressed in terms of the percentage of inhibition based on the U.I. obtained in the control group.

Stress Ulcer = test: Anti-ulcer effect: stress ulcer; format: in vivo, Male rats of the Wistar strain; settings: p.o., stress for 16 hours, vs control U.I.
Description: as §1
Male rats of the Wistar strain, 8 weeks of age, were used in groups of ten. Each animal was immobilized in a stressing cage as developed by Takagi et al., immersed in water at 23° C. to the level of the xiphoid process, and thereby subjected to stress for 16 hours. Thereafter, the stomach was excised. The length of the ulcer formed in the glandular part of the stomach was measured and regarded as an ulcer index (U.I.). A certain amount of a compound to be tested was orally administered just before subjecting the animal to stress. The results are also expressed in terms of the percentage of inhibition based on the U.I. obtained in the control group receiving no compounds to be tested.

Aspirin Ulcer = test: Anti-ulcer effect: aspirin ulcer; format: in vivo, Male rats of the Donryu strain; settings: p.o., aspirin 250 mg/kg, 6 hours
Description: as §1
Male rats of the Donryu strain, 10 to 11 weeks of age, were used in groups of ten. After 24 hours of fasting, a certain amount of a compound to be tested was orally administered to each animal of a group. Ten minutes later, aspirin was orally administered in a dose of 250 mg/kg. After 6 hours, the size of the ulcer formed in the glandular part of the stomach was rated by visual inspection and regarded as an ulcer index (U.I.). The results are also expressed in terms of the percentage of inhibition based on the U.I. obtained in the control group receiving no compounds to be tested.

Acetic Acid Ulcer = test: Anti-ulcer effect: acetic acid ulcer; format: in vivo, Male rats of the Wistar strain; settings: p.o., twice a day for 7 days
Description: as §1
Male rats of the Wistar strain, 6 weeks of age, were used in groups of ten. Under ether anesthesia, each animal was laparotomized, a round frame (with an inside diameter of 5 mm) made of stainless steel was applied to the anterior wall of the stomach, and 100% acetic acid was poured into the frame. After 30 seconds, the acetic acid was removed and the abdomen was closed. Starting on the 7th day after the operation, a certain amount of a compound to be tested was orally administered twice a day to each animal of a group for a period of 7 days. Thereafter, the degree of healing of the ulcer was rated by visual inspection and regarded as an ulcer index (U.I.). The results are also expressed in terms of the percentage of healing based on the U.I. obtained in the control group receiving no compounds to be tested.

Gastric Juice Secretion = test: Effect on gastric juice secretion (pyloric ligation); format: in vivo, Male rats of the Donryu strain; settings: 250 mg/kg, p.o.; 4 hours; control 4.9 ± 0.4; significant at 5% level
Description: (§2) Male rats of the Donryu strain, 11 weeks of age, were used in groups of ten. After 24 hours of fasting, the pyloric part of the stomach was ligated. Four hours later, the gastric juice was collected and its volume was measured. Then, its acidity was determined by titrating an aliquot of the gastric juice with 0.05 N sodium hydroxide. Further, the activity of pepsin was determined by Anson's method. A definite amount (250 mg/kg) of a compound to be tested was orally administered immediately after the pyloric ligation.

Gastric Juice Acidity = test: Effect on gastric juice acidity (pyloric ligation, titration with 0.05 N sodium hydroxide); format: in vivo, Male rats of the Donryu strain; settings: 250 mg/kg, p.o.; 4 hours; control 92.5 ± 3.7; significant at 5% level
Description: as §2

pepsin = test: Effect on pepsin activity (pyloric ligation, Anson's method); format: in vivo, Male rats of the Donryu strain; settings: 250 mg/kg, p.o.; 4 hours; control 7.4 ± 0.5; significant at 1% level
Description: as §2

[1] = system: Cysteamine Duodenal Ulcer; test: Anti-ulcer effect: cysteamine duodenal ulcer; format: in vivo, Male rats of the Donryu strain; settings: p.o., cysteamine hydrochloride 400 mg/kg, 18 hours
Description: as §1
(iv) Cysteamine Duodenal Ulcer
Male rats of the Donryu strain, 10 or 11 weeks of age, were used in groups of ten. After 24 hours of fasting, a certain amount of a compound to be tested was orally administered to each animal of a group. Thirty minutes later, cysteamine hydrochloride was orally administered in a dose of 400 mg/kg. After 18 hours, the product of the maximum and minimum diameters of the ulcer formed in the duodenum was determined and regarded as an ulcer index (U.I.). The results are also expressed in terms of the percentage of inhibition based on the U.I. obtained in the control group receiving no compounds to be tested.

Mouse = settings: 7 days observation
Description: Male and female mice of the dd Y strain, 4 weeks of age, as well as male and female rats of the rats of the Wistar strain, 7 weeks of age, were used in groups of ten. They were preliminarily raised for a week. Then, a compound to be tested (sodium salt) was dissolved in physiological saline solution and administered orally or subcutaneously. In the case of oral administration, the highest possible doses of 0.2 ml/10 g for mice and 2 ml/100 g for rats were used which both corresponded to 5,000 mg/kg. In the case of subcutaneous administration, the doses were reduced to 1/2. […] The animals that died during this period of observation were subjected to post-mortem examination.

Rat = test: Acute toxicity in rats; format: in vivo, Male and female rats of the Wistar strain; settings: 7 days observation
From the text: They were preliminarily raised for a week.

SMILES	percentage of inhibition (Shay's Ulcer) (Shay's Ulcer; 100 mg/kg)	percentage of inhibition (Shay's Ulcer) (Shay's Ulcer; 250 mg/kg)	percentage of inhibition (Stress Ulcer) (Stress Ulcer; 250 mg/kg)	percentage of inhibition (Aspirin Ulcer) (Aspirin Ulcer; 100 mg/kg)	percentage of inhibition (Aspirin Ulcer) (Aspirin Ulcer; 250 mg/kg)	percentage of healing (Acetic Acid Ulcer) (Acetic Acid Ulcer; 100 mg/kg)	percentage of healing (Acetic Acid Ulcer) (Acetic Acid Ulcer; 250 mg/kg)	Amount of Gastric Juice Secreted (Gastric Juice Secretion) [mL]	Acidity of Gastric Juice (Gastric Juice Acidity) [mEq/l]	Activity of Pepsin (pepsin) [mg/mL]	also measured
O=S(=O)(O)OC1C(OS(=O)(=O)O)C(OS(=O)(=O)O)C(OS(=O)(=O)O)C(OS(=O)(=O)O)C1OS(=O)(=O)O (stereo not shown) [Potassium Salt, inositol hexasulfate potassium salt]	85 percentage of inhibition	80 percentage of inhibition	25 percentage of inhibition	46 percentage of inhibition	40 percentage of inhibition	28 percentage of healing	22 percentage of healing	3.5 ± 0.4	60.2 ± 11.8	5.2 ± 0.4	–
O=S(=O)([O-])OC1C(OS(=O)(=O)[O-])C(OS(=O)(=O)[O-])C(OS(=O)(=O)[O-])C(OS(=O)(=O)[O-])C1OS(=O)(=O)[O-].[Na+].[Na+].[Na+].[Na+].[Na+].[Na+] (stereo not shown) [Sodium Salt, inositol hexasulfate sodium salt]	92 percentage of inhibition	77 percentage of inhibition	27 percentage of inhibition	44 percentage of inhibition	48 percentage of inhibition	29 percentage of healing	16 percentage of healing	3.3 ± 0.4	58.4 ± 11.7	5.0 ± 0.4	percentage of inhibition (Shay's Ulcer) (Shay's Ulcer; 50 mg/kg): 74 percentage of inhibition; percentage of inhibition (Stress Ulcer) (Stress Ulcer; 500 mg/kg): 50 percentage of inhibition; percentage of inhibition (Aspirin Ulcer) (Aspirin Ulcer; 50 mg/kg): 11 percentage of inhibition; percentage of inhibition (Cysteamine Duodenal Ulcer) ([1]; 100 mg/kg): 37 percentage of inhibition; percentage of inhibition (Cysteamine Duodenal Ulcer) ([1]; 250 mg/kg): 46 percentage of inhibition; percentage of inhibition (Cysteamine Duodenal Ulcer) ([1]; 500 mg/kg): 77 percentage of inhibition; percentage of healing (Acetic Acid Ulcer) (Acetic Acid Ulcer; 500 mg/kg): 38 percentage of healing; LD50 (Mouse; Oral): > 5,000 mg/kg; LD50 (Mouse; Subcutaneous): > 2,500 mg/kg; LD50 (Rat; Oral): > 5,000 mg/kg; LD50 (Rat; Subcutaneous): > 2,500 mg/kg
